# US11078198B2 (BRISTOL-MYERS SQUIBB COMPANY, priority 2017, dated 2021)
# pEC50: −log10 of the molar value.
# Legend:
# [1] = test system: Fgf15; test: Acute mouse in vivo assay, Fgf15 gene expression in ileum; conditions: single oral dose 3 mg/kg, @ 6 h
# Description: (§1) Acute Mouse In Vivo Assay:
# (§2) Male, C57BL6/NTac mice, weighing 25-28 g, are purchased from Taconic Labs (Hudson, N.Y.) and maintained on Teklad Global 18% Protein Rodent Diet (Harlan Laboratories). After 1 week acclimation, mice are sorted into groups based upon body weight. Mice are administered a single oral dose of vehicle or experimental compound. Systemic compound exposure is evaluated in plasma derived from blood collected via the submandibular vein at 1 hour post-dose, and at study termination (6 h). At study termination, the animals are euthanized and rapidly dissected. The medial lobe of the liver is divided, with one half being homogenized and analyzed for compound exposure, and the other half saved in RNAlater (Thermo-Fisher Scientific). The ileum is also dissected and preserved in RNAlater. Tissue samples in RNAlater are homogenized with MP Biomedicals' beads. RNA is extracted using the MagMax-96 Total RNA Isolation kit (Thermo-Fisher Scientific) according to the manufacturer's protocol. RNA Concentration is determined with the Nano-Drop 8000 Spectrophotometer (Thermo Fisher). Reverse transcription is done with Invitrogen's SuperScript® VILO cDNA Synthesis Kit according to the manufacturer's protocol. Real time PCR is done with Applied Biosystems' Taqman PCR master mixture according to the manufacturer's protocol. All primers are purchased from Thermo-Fisher Scientific. Mouse genes analyzed include Nr0b2 (which encodes the small heterodimer partner, SHP), Abcb11 (which encodes the bile salt excretion pump, BSEP), Cyp7a1, & Cyp8b1 in liver, and Fgf15, Fabp6 (which encodes ileal bile acid binding protein, I-BABP), Slc51a (which encodes organic solute transporter alpha subunit, OSTA), and Slc51b (which encodes organic solute transporter beta subunit, OSTB) in the ileum. The statistical significant changes in FGF15 gene expression are expressed as fold increase and CYP7A1 expression as a percent reduction relative to vehicle control.
# [2] = test system: Cyp7a1; test: Acute mouse in vivo assay, Cyp7a1 gene expression in liver; conditions: single oral dose 3 mg/kg, @ 6 h
# Description: as §1, §2
# [3] = biological target: T1, human FXR (Homo sapiens, UniProt Q96RI1); test: transient human FXR/Gal4-luciferase reporter assay; format: cell-based; conditions: Gal4-hFXR transfected HEK293 reporter cells; relative to 8 μM GW-4064
# T1 construct: expressed in transfected cells; host or cells: HEK293 cells stably carrying a 5xGal4-response-element firefly luciferase reporter, transiently transfected with pcDNA3.1-Gal4-FXR
# T1 sequence (Q96RI1 262-486 limits assumed): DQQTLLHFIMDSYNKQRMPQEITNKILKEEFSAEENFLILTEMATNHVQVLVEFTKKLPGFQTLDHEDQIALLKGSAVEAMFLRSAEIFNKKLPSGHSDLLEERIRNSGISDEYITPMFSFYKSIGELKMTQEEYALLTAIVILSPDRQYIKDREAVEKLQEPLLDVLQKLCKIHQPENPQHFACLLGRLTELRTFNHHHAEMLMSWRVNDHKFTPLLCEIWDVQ
# Outline: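 Transient Gal4-hFXR LBD fusion (pcDNA3.1, Lipofectamine, overnight) expressed in a HEK293 reporter line stably bearing five Gal4 elements upstream of firefly luciferase, grown in charcoal/dextran-stripped FBS. Compound dilutions in DMSO incubated with cells overnight at 37° C, 5% CO2, before luciferase readout.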
compound,measurement,setting,value
"CS(=O)(=O)NC(=O)c1cc(C(F)(F)F)c2cc(N3CCC4(C=C(c5c(-c6c(Cl)cncc6Cl)noc5C5CC5)C4)CC3)ccc2n1 [Example 184, 6-(2-(5-Cyclopropyl-3-(3,5-dichloropyridin-4-yl)isoxazol-4-yl)-7-azaspiro[3.5]non-1-en-7-yl)-N-(methylsulfonyl)-4-(trifluoromethyl)quinoline-2-carboxamide]","Fgf15 expression, fold increase relative to vehicle control",[1],+28 ×
same,"Cyp7a1 expression, percent reduction relative to vehicle control",[2],−99%
same,pEC50,[3],7.14
